Test results: PMC2874416 (Beilstein Journal of Organic Chemistry, 2010)
Read-outs that look alike come from different tables or passages of the source.

Experiments:
α-galactosidase A = tested on: α-galactosidase A; parameters: method as in PMID 17894781, PMID 18381081, PMID 19387866, PMID 19287194; settings: cultured Fabry patient cell lines, incubation for five days, 49 missense mutant forms; cited from earlier work
[1] = tested on: tissue globotriaosylceramide levels; parameters: method as in PMID 19773742; settings: mouse model; cited from earlier work
[2] = molecular target: T1, green coffee bean α-galactosidase (Coffea arabica, UniProt Q42656); assay: Inhibition of green coffee bean α-galactosidase, Ki by kinetic studies; format: biochemical; settings: 37 °C, pH 6.5, substrate PNP-Gal; read-out: Ki α-gal GCB
T1 construct: made in house
T1 sequence (Q42656 16-378): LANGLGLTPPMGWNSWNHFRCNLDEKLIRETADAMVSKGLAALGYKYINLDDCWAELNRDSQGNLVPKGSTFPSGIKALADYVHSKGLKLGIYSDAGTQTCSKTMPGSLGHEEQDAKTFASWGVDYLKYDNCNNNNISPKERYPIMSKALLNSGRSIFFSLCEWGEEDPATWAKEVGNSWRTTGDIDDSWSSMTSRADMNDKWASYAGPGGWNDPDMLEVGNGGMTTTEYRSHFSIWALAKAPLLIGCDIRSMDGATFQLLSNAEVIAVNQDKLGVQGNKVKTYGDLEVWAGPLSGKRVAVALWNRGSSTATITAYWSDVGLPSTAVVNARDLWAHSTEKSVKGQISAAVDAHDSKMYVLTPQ
Description: Green coffee bean α-galactosidase was purified and assayed as described.
Kinetic studies were performed at 37°C in 50 mM sodium phosphate buffer, pH 6.5 containing 0.1% serum albumin. Reactions were initiated by the addition of enzyme (final concentration = 0.3 µg/mL), bringing the total volume to 200µL. Reaction rates were measured by monitoring the release of p-nitrophenolate (λ = 400 nm, ε = […]) from PNP-Gal by means of a UNICAM 8700 UV-Vis spectrophotometer equipped with a circulating water bath. Inhibition studies were performed by varying […]
concentrations of both PNP-Gal and inhibitor. Ki values were calculated by direct fit of the initial rates to the equation below using Grafit. […]

[3] = molecular target: T2, Agrobacterium sp. β-glucosidase/galactosidase (Agrobacterium sp., UniProt P12614); assay: Inhibition of Agrobacterium sp. β-glucosidase/galactosidase (Abg), Ki by kinetic studies; format: biochemical
T2 construct: made in house
T2 sequence (P12614 1-459): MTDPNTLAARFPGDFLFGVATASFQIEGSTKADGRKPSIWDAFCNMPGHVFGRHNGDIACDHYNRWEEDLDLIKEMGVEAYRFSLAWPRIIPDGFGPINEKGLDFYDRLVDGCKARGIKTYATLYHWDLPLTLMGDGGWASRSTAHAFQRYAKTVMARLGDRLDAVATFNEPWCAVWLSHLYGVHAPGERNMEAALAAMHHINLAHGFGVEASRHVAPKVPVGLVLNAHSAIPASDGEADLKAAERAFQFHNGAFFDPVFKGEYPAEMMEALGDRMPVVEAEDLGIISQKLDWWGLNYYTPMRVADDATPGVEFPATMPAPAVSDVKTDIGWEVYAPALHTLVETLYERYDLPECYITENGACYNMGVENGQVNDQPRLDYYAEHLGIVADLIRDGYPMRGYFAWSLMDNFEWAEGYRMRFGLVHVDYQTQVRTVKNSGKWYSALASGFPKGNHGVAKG
Description: glycosidase was purified and assayed as described. Kinetic studies were performed at 37 °C in pH 7.0 sodium phosphate buffer (50 mM) containing 0.1 % bovine serum albumin, using 7.2 x 10-5 mg/mL enzyme. Approximate values of Ki were determined using a fixed concentration of substrate, 4-nitrophenyl β-D- […]
times to 5 times the Ki value ultimately determined. A horizontal line drawn through […]
an inhibitor concentration equal to -Ki. Full Ki determinations where required, were performed using the same range of inhibitor concentrations while also varying substrate (4-nitrophenyl glucoside) concentrations from approximately 0.015 mM to 0.6 mM. Data were analysed by direct fit to the Michaelis Menten equation describing reaction in the presence of inhibitors using the program GraFit. […]

E. coli β-galactosidase = molecular target: T3, E. coli β-galactosidase (Escherichia coli, UniProt P00722); assay: Inhibition of E. coli β-galactosidase, Ki by kinetic studies; format: biochemical
T3 construct: purchased Sigma Chemicals
T3 sequence (P00722 2-1024 limits assumed): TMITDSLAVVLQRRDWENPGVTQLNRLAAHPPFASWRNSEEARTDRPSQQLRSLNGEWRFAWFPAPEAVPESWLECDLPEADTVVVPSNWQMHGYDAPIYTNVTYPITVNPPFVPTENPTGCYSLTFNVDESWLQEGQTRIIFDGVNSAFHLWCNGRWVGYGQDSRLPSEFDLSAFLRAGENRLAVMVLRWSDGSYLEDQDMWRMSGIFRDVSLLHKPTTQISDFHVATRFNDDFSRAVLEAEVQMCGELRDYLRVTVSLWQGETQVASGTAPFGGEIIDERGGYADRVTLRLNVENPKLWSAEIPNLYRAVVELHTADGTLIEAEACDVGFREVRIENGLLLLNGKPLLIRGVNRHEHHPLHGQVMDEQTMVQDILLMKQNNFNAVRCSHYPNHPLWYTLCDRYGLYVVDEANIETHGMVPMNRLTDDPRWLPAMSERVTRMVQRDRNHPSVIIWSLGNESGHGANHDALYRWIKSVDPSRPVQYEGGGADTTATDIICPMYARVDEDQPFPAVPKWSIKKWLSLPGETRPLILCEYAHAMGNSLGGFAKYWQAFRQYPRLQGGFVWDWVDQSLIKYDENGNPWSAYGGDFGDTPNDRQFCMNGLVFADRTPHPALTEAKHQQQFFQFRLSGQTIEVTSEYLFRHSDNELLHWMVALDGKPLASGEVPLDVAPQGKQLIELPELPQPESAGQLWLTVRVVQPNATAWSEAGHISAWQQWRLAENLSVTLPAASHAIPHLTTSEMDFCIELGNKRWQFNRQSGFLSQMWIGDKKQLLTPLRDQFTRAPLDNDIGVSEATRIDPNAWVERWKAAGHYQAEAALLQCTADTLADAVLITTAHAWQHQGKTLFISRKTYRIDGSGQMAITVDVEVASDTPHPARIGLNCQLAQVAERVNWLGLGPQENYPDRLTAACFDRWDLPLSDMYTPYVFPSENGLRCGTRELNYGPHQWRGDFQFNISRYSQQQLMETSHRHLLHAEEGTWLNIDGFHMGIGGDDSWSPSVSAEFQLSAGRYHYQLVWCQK
Description: E. coli β-galactosidase was purchased from Sigma Chemicals. Kinetic studies were performed at 37°C in 100 mM sodium phosphate buffer, pH 7.0 containing 0.1% serum albumin. Rates of reaction were determined as a function of both varying substrate and inhibitor concentration over the concentration ranges indicated below.
Data obtained were analysed using a nonlinear regression analysis program GraFit, p-nitrogalactopyranoside (Km = 0.03 mM), 0.045 – 0.3 mM). […]

[4] = tested on: β-galactosidase mutant feline fibroblast cell line; assay: Chemical chaperone activity in β-galactosidase mutant feline fibroblast cell line; format: cell-based; settings: preliminary; for increase of enzyme activity of β-galactosidase mutant: concentration 100 µM
[5] = molecular target: T4, human lysosomal β-galactosidase (Homo sapiens, UniProt P16278); assay: Inhibition of human lysosomal β-galactosidase; format: biochemical
T4 sequence (P16278 29-677): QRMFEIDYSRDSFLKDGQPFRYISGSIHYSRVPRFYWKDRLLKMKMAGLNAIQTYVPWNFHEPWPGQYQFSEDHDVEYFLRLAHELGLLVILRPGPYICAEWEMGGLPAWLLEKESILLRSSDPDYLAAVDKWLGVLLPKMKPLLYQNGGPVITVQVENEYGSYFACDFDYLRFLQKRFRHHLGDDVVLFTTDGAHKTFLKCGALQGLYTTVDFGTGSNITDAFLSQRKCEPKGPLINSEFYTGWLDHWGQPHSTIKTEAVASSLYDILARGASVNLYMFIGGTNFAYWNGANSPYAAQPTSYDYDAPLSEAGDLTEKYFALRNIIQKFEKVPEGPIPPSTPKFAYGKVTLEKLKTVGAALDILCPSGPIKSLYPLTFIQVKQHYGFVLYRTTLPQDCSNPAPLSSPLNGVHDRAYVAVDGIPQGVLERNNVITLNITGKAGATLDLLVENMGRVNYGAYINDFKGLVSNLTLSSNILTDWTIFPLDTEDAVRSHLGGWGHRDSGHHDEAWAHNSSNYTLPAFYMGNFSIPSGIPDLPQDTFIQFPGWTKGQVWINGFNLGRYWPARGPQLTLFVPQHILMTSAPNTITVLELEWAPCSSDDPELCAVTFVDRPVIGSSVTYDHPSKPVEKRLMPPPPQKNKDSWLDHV

β-galactosidase = tested on: β-galactosidase; parameters: method as in PMID 19812739; settings: GM1-gangliosidosis model mice, orally administered; cited from earlier work
[6] = 37 °C, pH 7.0, read-out: Ki β-gal E. coli

| SMILES | Ki [2] | Ki [3] | Ki (E. coli β-galactosidase; [6]) | other results |
| --- | --- | --- | --- | --- |
| OC[C@H]1NC[C@H](O)[C@@H](O)[C@H]1O [Compound 4, 1-Deoxygalactonojirimycin] |  |  |  | increase of α-galactosidase A levels (α-galactosidase A): 1.5 to 28 fold; tissue globotriaosylceramide levels [1]: reduce tissue globotriaosylceramide levels |
| CC(C)c1ccc(C(=O)NCCCCCCN2C[C@H](O)[C@@H](O)[C@@H](O)[C@H]2CO)cc1 [Compound 16] | 2600 nM | 13000 nM |  | Ki (E. coli β-galactosidase): 1300 nM |
| O=C(NCCCCCCN1C[C@H](O)[C@@H](O)[C@@H](O)[C@H]1CO)c1cccnc1 [Compound 17] | 2200 nM | 1500 nM | 830 nM | increase of enzyme activity of β-galactosidase mutant [4]: up to 5.5 fold |
| CN(C)c1ccc(C(=O)NCCCCCCN2C[C@H](O)[C@@H](O)[C@@H](O)[C@H]2CO)cc1 [Compound 18] | 490 nM | 3800 nM | 1100 nM | increase of relative enzyme activity of β-galactosidase mutant ([4]; concentration 2 µM): 4.8 fold |
| O=C(CCCc1ccc2ccc3cccc4ccc1c2c34)NCCCCCCN1C[C@H](O)[C@@H](O)[C@@H](O)C1CO (stereo partly shown) [Compound 19] | 7000 nM | 60 nM |  | Ki (E. coli β-galactosidase): 250 nM |
| CC(C)(C)OC(=O)NCCCCCCN1C[C@H](O)[C@@H](O)[C@@H](O)[C@H]1CO [Compound 20] | 4300 nM |  | 2400 nM | Ki ([3]; read-out: Ki β-glu/gal Abg, 37 °C, pH 7.0, substrate 4-nitrophenyl β-D-glucopyranoside): 3000 nM; IC50 [5]: 10900 nM; Ki [5]: 2000 nM |
| O=C(NCCCCCCN1C[C@H](O)[C@@H](O)[C@@H](O)[C@H]1CO)OCc1ccccc1 [Compound 22] | 2200 nM | 6000 nM | 400 nM | increase of enzyme activity of β-galactosidase mutant [4]: up to 5.5 fold; IC50 [5]: 3260 nM; Ki [5]: 720 nM |
| CCCCCCCCN[C@@H]1C=C(CO)[C@H](O)[C@H](O)[C@H]1O [N-octyl-4-epi-β-valienamine] |  |  |  | β-galactosidase activity in brain after oral administration (β-galactosidase): enhancing β-galactosidase activity |
